From ChEMBL document CHEMBL5046244, “Targeted Covalent Inhibition of Small CTD Phosphatase 1 to Promote the Degradation of the REST Transcription Factor in Human Cells” (J Med Chem, 2022) come the findings set out here.

Calls of active or inactive are those of the source. The rule behind the calls is not given here.

In the assay the target is T1, Carboxy-terminal domain RNA polymerase II polypeptide A small phosphatase 1 (Homo sapiens) (UniProt Q9GZU7).
T1 sequence (whole entry): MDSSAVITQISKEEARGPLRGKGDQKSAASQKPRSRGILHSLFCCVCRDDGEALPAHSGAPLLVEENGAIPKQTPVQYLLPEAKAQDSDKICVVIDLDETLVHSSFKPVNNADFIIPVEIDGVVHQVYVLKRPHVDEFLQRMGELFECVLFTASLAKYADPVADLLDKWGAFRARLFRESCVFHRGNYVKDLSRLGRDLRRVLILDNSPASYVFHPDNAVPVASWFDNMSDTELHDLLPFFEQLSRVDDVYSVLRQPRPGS
As to the kind of experiment: Binding affinity to wild type human SCP1 assessed as covalent bond formation at 50 uM incubated for 18 hrs.

As to `C#CCCC(=O)NCCCNC(=O)C1=Cc2ccccc2S1(=O)=O`, the outcome was inactive.
